Data reported in ChEMBL document CHEMBL3885881, “DrugMatrix”.

Species: Rattus norvegicus
Experiment: DrugMatrix - Regimen: Daily Repeat
Format: toxicity, organism-based, Sprague-Dawley
Set-up: regimen Daily Repeat, gender Male, age 6-8 weeks
Settings: in vivo, po, route oral GAVAGE, […]; for ABSOLUTE BASOPHIL / ABSOLUTE EOSINOPHIL / ABSOLUTE LYMPHOCYTE / ABSOLUTE MONOCYTE / ABSOLUTE SEGMENTED NEUTROPHIL / BASOPHIL / EOSINOPHIL / ERYTHROCYTE COUNT / HEMATOCRIT / HEMOGLOBIN / LEUKOCYTE COUNT / LYMPHOCYTE / MEAN CORPUSCULAR HEMOGLOBIN / MEAN CORPUSCULAR HEMOGLOBIN CONCENTRATION / MEAN CORPUSCULAR VOLUME / MONOCYTE / NEUTROPHIL / NUCLEATED RED BLOOD CELLS / PLATELET COUNT: tissue Blood; for ALANINE AMINOTRANSFERASE / ALBUMIN / ALKALINE PHOSPHATASE / ASPARTATE AMINOTRANSFERASE / BLOOD UREA NITROGEN / CARBON DIOXIDE / CHLORIDE / CHOLESTEROL / CREATINE PHOSPHOKINASE / CREATININE / GLUCOSE / LACTATE DEHYDROGENASE / LIPASE / PHOSPHORUS / POTASSIUM / SODIUM / TOTAL BILIRUBIN / TOTAL PROTEIN / URIC ACID: tissue Plasma
[1] = 10 mg/kg, 72 h, dose level Low, time 3 day
[2] = 10 mg/kg, 120 h, dose level Low, time 5 day
[3] = 1200 mg/kg, 72 h, dose level High, time 3 day
[4] = 1200 mg/kg, 120 h, dose level High, time 5 day

Question: Which results are given for `COC(=O)Nc1nc2cc(C(=O)c3ccc(F)cc3)ccc2[nH]1` [FLUBENDAZOLE]?
Answer: ABSOLUTE BASOPHIL [1]: 0 CELLS/uL; ABSOLUTE EOSINOPHIL [1]: 47.67 CELLS/uL; ABSOLUTE LYMPHOCYTE [1]: 13609.33 CELLS/uL; ABSOLUTE MONOCYTE [1]: 47.67 CELLS/uL; ABSOLUTE SEGMENTED NEUTROPHIL [1]: 1162 CELLS/uL; BASOPHIL [1]: 0%; EOSINOPHIL [1]: 0.33%; ERYTHROCYTE COUNT [1]: 5.56 x10E6/uL; HEMATOCRIT [1]: 35.83%; HEMOGLOBIN [1]: 14.1 G/DL; LEUKOCYTE COUNT [1]: 14.87 x10E3/uL; LYMPHOCYTE [1]: 91.33%; MEAN CORPUSCULAR HEMOGLOBIN [1]: 25.37 pg; MEAN CORPUSCULAR HEMOGLOBIN CONCENTRATION [1]: 39.33 G/DL; MEAN CORPUSCULAR VOLUME [1]: 64.4 fL; MONOCYTE [1]: 0.33%; NEUTROPHIL [1]: 8%; NUCLEATED RED BLOOD CELLS [1]: 0 /100WBC; PLATELET COUNT [1]: 1248.33 x10E3/uL; ALANINE AMINOTRANSFERASE [1]: 66.33 u/L; ALBUMIN [1]: 4.3 G/DL; ALKALINE PHOSPHATASE [1]: 384.67 u/L; ASPARTATE AMINOTRANSFERASE [1]: 89 u/L; BLOOD UREA NITROGEN [1]: 14.67 mg/dL; CARBON DIOXIDE [1]: 28.67 mmol/L; CHLORIDE [1]: 103.67 MEQ/L; CHOLESTEROL [1]: 73 mg/dL; CREATINE PHOSPHOKINASE [1]: 180.67 u/L; CREATININE [1]: 0.2 mg/dL; GLUCOSE [1]: 149.33 mg/dL; LACTATE DEHYDROGENASE [1]: 206 u/L; LIPASE [1]: 10.67 u/L; PHOSPHORUS [1]: 13.07 mg/dL; POTASSIUM [1]: 6.75 MEQ/L; SODIUM [1]: 148 MEQ/L; TOTAL BILIRUBIN [1]: 0.17 mg/dL; TOTAL PROTEIN [1]: 5.6 G/DL; URIC ACID [1]: 2.37 mg/dL; ABSOLUTE BASOPHIL [2]: 0 CELLS/uL; ABSOLUTE EOSINOPHIL [2]: 0 CELLS/uL; ABSOLUTE LYMPHOCYTE [2]: 11922.67 CELLS/uL; ABSOLUTE MONOCYTE [2]: 87 CELLS/uL; ABSOLUTE SEGMENTED NEUTROPHIL [2]: 723.67 CELLS/uL; BASOPHIL [2]: 0%; EOSINOPHIL [2]: 0%; ERYTHROCYTE COUNT [2]: 5.65 x10E6/uL; HEMATOCRIT [2]: 34.27%; HEMOGLOBIN [2]: 13.7 G/DL; LEUKOCYTE COUNT [2]: 12.73 x10E3/uL; LYMPHOCYTE [2]: 93.67%; MEAN CORPUSCULAR HEMOGLOBIN [2]: 24.3 pg; MEAN CORPUSCULAR HEMOGLOBIN CONCENTRATION [2]: 40.03 G/DL; MEAN CORPUSCULAR VOLUME [2]: 60.63 fL; MONOCYTE [2]: 0.67%; NEUTROPHIL [2]: 5.67%; NUCLEATED RED BLOOD CELLS [2]: 0.33 /100WBC; PLATELET COUNT [2]: 1117 x10E3/uL; ALANINE AMINOTRANSFERASE [2]: 57.33 u/L; ALBUMIN [2]: 4.23 G/DL; ALKALINE PHOSPHATASE [2]: 373.33 u/L; ASPARTATE AMINOTRANSFERASE [2]: 85.33 u/L; BLOOD UREA NITROGEN [2]: 15.67 mg/dL; CARBON DIOXIDE [2]: 23.33 mmol/L; CHLORIDE [2]: 105 MEQ/L; CHOLESTEROL [2]: 58.67 mg/dL; CREATINE PHOSPHOKINASE [2]: 240.33 u/L; CREATININE [2]: 0.22 mg/dL; GLUCOSE [2]: 160.33 mg/dL; LACTATE DEHYDROGENASE [2]: 156.67 u/L; LIPASE [2]: 9.33 u/L; PHOSPHORUS [2]: 12.1 mg/dL; POTASSIUM [2]: 7.18 MEQ/L; SODIUM [2]: 146.47 MEQ/L; TOTAL BILIRUBIN [2]: 0.2 mg/dL; TOTAL PROTEIN [2]: 5.97 G/DL; URIC ACID [2]: 1.9 mg/dL; ABSOLUTE BASOPHIL [3]: 0 CELLS/uL; ABSOLUTE EOSINOPHIL [3]: 0 CELLS/uL; ABSOLUTE LYMPHOCYTE [3]: 12475.33 CELLS/uL; ABSOLUTE MONOCYTE [3]: 43.67 CELLS/uL; ABSOLUTE SEGMENTED NEUTROPHIL [3]: 1014.33 CELLS/uL; BASOPHIL [3]: 0%; EOSINOPHIL [3]: 0%; ERYTHROCYTE COUNT [3]: 5.28 x10E6/uL; HEMATOCRIT [3]: 33.83%; HEMOGLOBIN [3]: 13.6 G/DL; LEUKOCYTE COUNT [3]: 13.53 x10E3/uL; LYMPHOCYTE [3]: 92%; MEAN CORPUSCULAR HEMOGLOBIN [3]: 25.87 pg; MEAN CORPUSCULAR HEMOGLOBIN CONCENTRATION [3]: 40.23 G/DL; MEAN CORPUSCULAR VOLUME [3]: 64.27 fL; MONOCYTE [3]: 0.33%; NEUTROPHIL [3]: 7.67%; NUCLEATED RED BLOOD CELLS [3]: 0.33 /100WBC; PLATELET COUNT [3]: 1168 x10E3/uL; ALANINE AMINOTRANSFERASE [3]: 71.67 u/L; ALBUMIN [3]: 4.33 G/DL; ALKALINE PHOSPHATASE [3]: 451.33 u/L; ASPARTATE AMINOTRANSFERASE [3]: 104.67 u/L; BLOOD UREA NITROGEN [3]: 12 mg/dL; CARBON DIOXIDE [3]: 29.33 mmol/L; CHLORIDE [3]: 100.67 MEQ/L; CHOLESTEROL [3]: 60.33 mg/dL; CREATINE PHOSPHOKINASE [3]: 400 u/L; CREATININE [3]: 0.19 mg/dL; GLUCOSE [3]: 163.67 mg/dL; LACTATE DEHYDROGENASE [3]: 208.67 u/L; LIPASE [3]: 9.67 u/L; PHOSPHORUS [3]: 12.3 mg/dL; POTASSIUM [3]: 6.63 MEQ/L; SODIUM [3]: 146.5 MEQ/L; TOTAL BILIRUBIN [3]: 0.17 mg/dL; TOTAL PROTEIN [3]: 5.7 G/DL; URIC ACID [3]: 1.9 mg/dL; ABSOLUTE BASOPHIL [4]: 0 CELLS/uL; ABSOLUTE EOSINOPHIL [4]: 0 CELLS/uL; ABSOLUTE LYMPHOCYTE [4]: 14800.33 CELLS/uL; ABSOLUTE MONOCYTE [4]: 0 CELLS/uL; ABSOLUTE SEGMENTED NEUTROPHIL [4]: 966.33 CELLS/uL; BASOPHIL [4]: 0%; EOSINOPHIL [4]: 0%; ERYTHROCYTE COUNT [4]: 5.99 x10E6/uL; HEMATOCRIT [4]: 36.1%; HEMOGLOBIN [4]: 14.47 G/DL; LEUKOCYTE COUNT [4]: 15.77 x10E3/uL; LYMPHOCYTE [4]: 93.67%; MEAN CORPUSCULAR HEMOGLOBIN [4]: 24.2 pg; MEAN CORPUSCULAR HEMOGLOBIN CONCENTRATION [4]: 40.07 G/DL; MEAN CORPUSCULAR VOLUME [4]: 60.33 fL; MONOCYTE [4]: 0%; NEUTROPHIL [4]: 6.33%; NUCLEATED RED BLOOD CELLS [4]: 0 /100WBC; PLATELET COUNT [4]: 1290.67 x10E3/uL; ALANINE AMINOTRANSFERASE [4]: 58.33 u/L; ALBUMIN [4]: 4.4 G/DL; ALKALINE PHOSPHATASE [4]: 432 u/L; ASPARTATE AMINOTRANSFERASE [4]: 93.33 u/L; BLOOD UREA NITROGEN [4]: 12.33 mg/dL; CARBON DIOXIDE [4]: 21.67 mmol/L; CHLORIDE [4]: 103.33 MEQ/L; CHOLESTEROL [4]: 77.67 mg/dL; CREATINE PHOSPHOKINASE [4]: 239.67 u/L; CREATININE [4]: 0.28 mg/dL; GLUCOSE [4]: 161 mg/dL; LACTATE DEHYDROGENASE [4]: 157.67 u/L; LIPASE [4]: 10 u/L; PHOSPHORUS [4]: 11.27 mg/dL; POTASSIUM [4]: 6.7 MEQ/L; SODIUM [4]: 144.17 MEQ/L; TOTAL BILIRUBIN [4]: 0.13 mg/dL; TOTAL PROTEIN [4]: 6.23 G/DL; URIC ACID [4]: 1.93 mg/dL
